Reference: the NIST ThermoML archive (doi:10.1021/je0202073)

Tests used:
[1] = excess molar enthalpy (molar enthalpy of mixing); xn = mol fraction of the nth substance listed; conditions: 101.3 kPa, Liquid, Calvet calorimetry
[2] = xn = mol fraction of the nth substance listed; conditions: 101.3 kPa, Liquid

CCOC=O [ethyl methanoate] + CC(C)(C)O
Conditions	excess molar enthalpy [kcal/mol]	excess molar volume [m3/mol]
[1], 299.15 K, x1 = 0.0689	0.141	–
[1], 299.15 K, x1 = 0.1401	0.254	–
[1], 299.15 K, x1 = 0.2146	0.354	–
[1], 299.15 K, x1 = 0.2869	0.43	–
[1], 299.15 K, x1 = 0.3549	0.478	–
[1], 299.15 K, x1 = 0.4172	0.506	–
[1], 299.15 K, x1 = 0.4738	0.518	–
[1], 299.15 K, x1 = 0.5242	0.517	–
[1], 299.15 K, x1 = 0.5696	0.515	–
[1], 299.15 K, x1 = 0.571	0.511	–
[1], 299.15 K, x1 = 0.6322	0.489	–
[1], 299.15 K, x1 = 0.6996	0.447	–
[1], 299.15 K, x1 = 0.7701	0.384	–
[1], 299.15 K, x1 = 0.8357	0.301	–
[1], 299.15 K, x1 = 0.8964	0.213	–
[1], 299.15 K, x1 = 0.9485	0.108	–
[1], 318.15 K, x1 = 0.0612	0.124	–
[1], 318.15 K, x1 = 0.1263	0.219	–
[1], 318.15 K, x1 = 0.2016	0.326	–
[1], 318.15 K, x1 = 0.2725	0.4	–
[1], 318.15 K, x1 = 0.3389	0.443	–
[1], 318.15 K, x1 = 0.3986	0.471	–
[1], 318.15 K, x1 = 0.4509	0.485	–
[1], 318.15 K, x1 = 0.4911	0.489	–
[1], 318.15 K, x1 = 0.511	0.49	–
[1], 318.15 K, x1 = 0.5304	0.49	–
[1], 318.15 K, x1 = 0.5696	0.484	–
[1], 318.15 K, x1 = 0.6207	0.475	–
[1], 318.15 K, x1 = 0.6806	0.449	–
[1], 318.15 K, x1 = 0.7292	0.417	–
[1], 318.15 K, x1 = 0.786	0.37	–
[1], 318.15 K, x1 = 0.8292	0.322	–
[1], 318.15 K, x1 = 0.8754	0.261	–
[1], 318.15 K, x1 = 0.9191	0.192	–
[1], 318.15 K, x1 = 0.9757	0.0729	–
[2], 303.15 K, x1 = 0.0451	–	1.65e-06
[2], 303.15 K, x1 = 0.0901	–	3.35e-06
[2], 303.15 K, x1 = 0.1537	–	5.06e-06
[2], 303.15 K, x1 = 0.1973	–	6.07e-06
[2], 303.15 K, x1 = 0.2481	–	7.02e-06
[2], 303.15 K, x1 = 0.2631	–	7.32e-06
[2], 303.15 K, x1 = 0.3042	–	7.9e-06
[2], 303.15 K, x1 = 0.3255	–	8.1e-06
[2], 303.15 K, x1 = 0.3448	–	8.3e-06
[2], 303.15 K, x1 = 0.3957	–	8.6e-06
[2], 303.15 K, x1 = 0.4411	–	8.73e-06
[2], 303.15 K, x1 = 0.4445	–	8.75e-06
[2], 303.15 K, x1 = 0.4964	–	8.79e-06
[2], 303.15 K, x1 = 0.5013	–	8.8e-06
[2], 303.15 K, x1 = 0.5084	–	8.78e-06
[2], 303.15 K, x1 = 0.5344	–	8.7e-06
[2], 303.15 K, x1 = 0.5515	–	8.64e-06
[2], 303.15 K, x1 = 0.5677	–	8.58e-06
[2], 303.15 K, x1 = 0.5954	–	8.35e-06
[2], 303.15 K, x1 = 0.6467	–	7.94e-06
[2], 303.15 K, x1 = 0.6956	–	7.42e-06
[2], 303.15 K, x1 = 0.7432	–	6.59e-06
[2], 303.15 K, x1 = 0.8016	–	5.54e-06
[2], 303.15 K, x1 = 0.8477	–	4.63e-06
[2], 303.15 K, x1 = 0.9067	–	3.28e-06
[2], 303.15 K, x1 = 0.9465	–	2.17e-06
[2], 318.15 K, x1 = 0.1022	–	4.09e-06
[2], 318.15 K, x1 = 0.1289	–	4.86e-06
[2], 318.15 K, x1 = 0.232	–	7.07e-06
[2], 318.15 K, x1 = 0.2909	–	7.96e-06
[2], 318.15 K, x1 = 0.3356	–	8.41e-06
[2], 318.15 K, x1 = 0.4076	–	8.97e-06
[2], 318.15 K, x1 = 0.4696	–	9.17e-06
[2], 318.15 K, x1 = 0.4934	–	9.19e-06
[2], 318.15 K, x1 = 0.5055	–	9.2e-06
[2], 318.15 K, x1 = 0.5111	–	9.19e-06
[2], 318.15 K, x1 = 0.5267	–	9.13e-06
[2], 318.15 K, x1 = 0.536	–	9.09e-06
[2], 318.15 K, x1 = 0.5637	–	8.91e-06
[2], 318.15 K, x1 = 0.5859	–	8.75e-06
[2], 318.15 K, x1 = 0.639	–	8.21e-06
[2], 318.15 K, x1 = 0.6902	–	7.6e-06
[2], 318.15 K, x1 = 0.7388	–	6.82e-06
[2], 318.15 K, x1 = 0.7922	–	5.79e-06
[2], 318.15 K, x1 = 0.8429	–	4.71e-06
[2], 318.15 K, x1 = 0.8913	–	3.45e-06
[2], 318.15 K, x1 = 0.9414	–	2.04e-06
